Data as given in patent US10398689B2, “Benzopiperidine derivative, preparation method thereof and medical use thereof” (Jiangsu Hengrui Medicine Co., Ltd., priority 2015, dated 2019).

What was measured:
MCF7 cells = test: Inhibition of the proliferation of MCF7 cells (Cell Titer-Glo); format: cell-based; conditions: Homo sapiens, MCF-7 cells, 72 hours, read-out: IC50 value of inhibition effect on the proliferation of MCF7 cells
Method in brief: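 MCF-7 cells seeded 24 h, then treated with compound (0.5% DMSO final) in 2% FBS medium for 72 h at 37 °C; viability read by CellTiter-Glo luminescence. IC50 from luminescence vs log concentration; maximum inhibition scaled to AZD9496 at 100 nM set as 100%.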

ERα = target: T1, ERα (Homo sapiens, UniProt P03372); test: Degradation effect on ERα in MCF-7 cells (ERα Duoset ELISA); format: cell-based; conditions: MCF7; compound at 3 μM, relative to positive control AZD-9496 at 3 μM set to 100%
T1 construct: host or cells: MCF-7
T1 sequence (P03372 1-595): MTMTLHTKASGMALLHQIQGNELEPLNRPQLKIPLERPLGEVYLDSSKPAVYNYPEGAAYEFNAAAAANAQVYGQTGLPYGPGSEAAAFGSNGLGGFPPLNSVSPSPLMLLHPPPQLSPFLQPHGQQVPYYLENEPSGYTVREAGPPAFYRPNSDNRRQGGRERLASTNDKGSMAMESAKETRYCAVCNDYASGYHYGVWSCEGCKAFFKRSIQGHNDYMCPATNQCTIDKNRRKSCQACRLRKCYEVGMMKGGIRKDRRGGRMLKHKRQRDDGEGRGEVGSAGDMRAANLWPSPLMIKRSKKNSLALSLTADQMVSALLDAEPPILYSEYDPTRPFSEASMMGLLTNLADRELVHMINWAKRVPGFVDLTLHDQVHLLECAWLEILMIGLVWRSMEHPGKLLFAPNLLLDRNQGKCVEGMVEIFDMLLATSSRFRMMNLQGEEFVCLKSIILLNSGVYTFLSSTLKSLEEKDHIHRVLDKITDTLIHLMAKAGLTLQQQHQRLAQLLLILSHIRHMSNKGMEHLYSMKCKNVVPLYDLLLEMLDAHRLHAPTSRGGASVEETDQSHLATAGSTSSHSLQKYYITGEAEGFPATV
Description: In order to determine the degradation effect on ER induced by the compound of present invention, the following method was used to determine the degradation effect of the compounds of the present invention on ER.
MCF-7 cell line (TChu 74, Cell Bank of Chinese Academy of Sciences typical culture preservation Committee)
ERα Duoset Kit (#DYC5715E, R&D System)
MCF-7 cells well incubated in DMEM/F-12 medium containing 10% FBS.
On the first day of the experiment, MCF-7 cells were resuspended in DMEM/F-12 medium containing 10% FBS treated by activated carbon, then inoculated into a 48-well plate with a density of 50,000 cells/well and incubated for 22-24 hours.
On the second day of the experiment, the test compound was diluted with medium and added to a 48-well plate. The ERα-capture antibody was diluted to 1 μg/ml with PBS, and added with 100 μl/well to a 96-well plate at 100 μl/well. The plate was sealed and coated overnight at room temperature.
On the third day of the experiment, the coated 96-well plate was washed twice with PBS, added with a sealing solution (1% BSA in PBS) at 110 μl/well and sealed for 1 hour at room temperature. The 48-well plate was washed once and the residual liquid was removed. Then, 60 μl of lysis buffer (6 M urea, 1 mM EDTA, 0.5% Triton X-100, 1 mM PMSF, Protease Inhibitor cocktail) was added to each well. After lysis on ice for 15 minutes, the diluent (1 mM EDTA, 0.5% TritonX-100 dissolved in PBS) was added. The cell-diluted lysate was transferred to a 96-well plate at 100 μl/well, then the plate was incubated at room temperature for 2 hours. The diluted primary antibody was added after the plate was washed 4 times with a washing liquid (PBST). After incubation for 1 hour, the 96-well plate was washed 4 times, and the second antibody was added, then the plate was incubated for 30 minutes. After the plate was washed with a washing liquid, TMB chromogenic solution was added and incubated for 15 minutes. The reaction was stopped by the addition of 1 M H2SO4, then the light absorption at a wavelength of 450 nm was read. The degradation effect of the compound AZD9496 at 3 μM was set to 100%, the Emax of other compounds=(ODnegative control−ODcompound 3 μM)/(ODnegative control−ODAZD9496 3 μM)×100%, and the negative control was a well with DMSO.

| IC50 (MCF7 cells) [nM] | Emax at 3 µM (ERα) [%] | Structure (SMILES) |
| --- | --- | --- |
| 0.37 | 115 | CCc1ccc(N2C(C)Cc3cc(-c4cnn(C)c4)ccc3C2c2ccc(/C=C/C(=O)O)cc2)cc1 [Example 1, (E)-3-(4-((1R,3R/1S,3S)-2-(4-Ethylphenyl)-3-methyl-6-(1-methyl-1H-pyrazol-4-yl)-1,2,3,4-tetrahydroisoquinolin-1-yl)phenyl)acrylic acid] |
| 0.86 | 118 | CCn1cc(-c2ccc3c(c2)CC(C)N(c2ccc(C(C)C)cc2)C3c2ccc(/C=C/C(=O)O)cc2)cn1 [Example 7, (E)-3-(4-((1R,3R/1S,3S)-6-(1-Ethyl-1H-pyrazol-4-yl)-2-(4-isopropylphenyl)-3-methyl-1,2,3,4-tetrahydroisoquinolin-1-yl)phenyl)acrylic acid] |
| 0.17 | 129 | CCn1cc(-c2ccc3c(c2)C[C@@H](C)N(c2ccc(C(C)C)cc2)[C@@H]3c2ccc(/C=C/C(=O)O)cc2)cn1 [Example 8, (E)-3-(4-((1R,3R)-6-(1-Ethyl-1H-pyrazol-4-yl)-2-(4-isopropylphenyl)-3-methyl-1,2,3,4-tetrahydroisoquinolin-1-yl)phenyl)acrylic acid] |
| 1.47 | 134 | C[C@@H]1Cc2cc(-c3cnn(C)c3)ccc2[C@@H](c2ccc(/C=C/C(=O)O)cc2)N1c1ccc(C2CC2)cc1 [Example 11, (E)-3-(4-((1R,3R)-2-(4-Cyclopropylphenyl)-3-methyl-6-(1-methyl-1H-pyrazol-4-yl)-1,2,3,4-tetrahydroisoquinolin-1-yl)phenyl)acrylic acid] |
| 0.53 | 147 | CCn1cc(-c2ccc3c(c2)C[C@@H](C)N(c2ccc(C4CC4)cc2)[C@@H]3c2ccc(/C=C/C(=O)O)cc2)cn1 [Example 14, (E)-3-(4-((1R,3R)-2-(4-Cyclopropylphenyl)-6-(1-ethyl-1H-pyrazol-4-yl)-3-methyl-1,2,3,4-tetrahydroisoquinolin-1-yl)phenyl)acrylic acid] |
| 0.34 | 112 | CC(C)c1ccc(N2[C@H](c3ccc(/C=C/C(=O)O)cc3)c3ccc(-c4cnn(C)c4)cc3C[C@H]2C)cc1 [Example 42, (E)-3-(4-((1R,3R)-2-(4-Isopropylphenyl)-3-methyl-6-(1-methyl-1H-pyrazol-4-yl)-1,2,3,4-tetrahydroisoquinolin-1-yl)phenyl)acrylic acid] |
